Measurements as given in ChEMBL document CHEMBL5233241, “A medicinal chemistry perspective of drug repositioning: Recent advances and challenges in drug discovery” (Eur J Med Chem, 2020).
Where a name gives a salt, the structure may show the parent alone.

How the values were obtained:
Plasmodium = experiment: Antimalarial activity against Plasmodium; format: functional, organism-based
[1] = test system: Middle East respiratory syndrome-related coronavirus; experiment: Antiviral activity against MERS-CoV/KOR/KNIH/002_05_2015 infected in human Huh-7 cells assessed as reduction in virus-induced cytopathic effect incubated for 3 days by CellTiter 96 aqueous one solution cell proliferation assay; format: functional, organism-based; conditions: KOR/KNIH/002_05_2015, Huh-7, 72 h
[2] = Cytotoxicity against human Huh-7 cells; format: toxicity, cell-based
[3] = test system: Middle East respiratory syndrome-related coronavirus; experiment: Antiviral activity against MERS-CoV isolate EMC/2012 infected in human Huh-7 cells assessed as reduction in virus-induced cytopathic effect incubated for 2 days by MTS assay; format: functional, organism-based; conditions: EMC/2012, Huh-7, 48 h
SARS-CoV [4] = experiment: Antiviral activity against SARS-CoV isolate Frankfurt-1 infected in Vero E6 cells assessed as reduction in virus-induced cytopathic effect incubated for 3 days by MTS assay; format: functional, organism-based; conditions: Severe acute respiratory syndrome-related coronavirus, Frankfurt-1, Vero C1008, 72 h
Human coronavirus 229E [5] = experiment: Antiviral activity against hCoV-229E expressing GFP infected in human Huh-7 cells assessed as reduction in virus-induced cytopathic effect incubated for 24 hrs by MTS assay; format: functional, organism-based; conditions: Huh-7, 24 h
Mus musculus = experiment: Anti-alzheimer activity against APP/PSEN1 transgenic mouse model assessed as fold reduction in amyloid beta plaques at 10 mg/kg administered intranasally every other day for 2 months; format: functional; conditions: route nas, 1460 h
Tyrosinase = target: T1, Tyrosinase (Agaricus bisporus, UniProt O42713); experiment: Inhibition of mushroom tyrosinase
T1 sequence (O42713 whole entry): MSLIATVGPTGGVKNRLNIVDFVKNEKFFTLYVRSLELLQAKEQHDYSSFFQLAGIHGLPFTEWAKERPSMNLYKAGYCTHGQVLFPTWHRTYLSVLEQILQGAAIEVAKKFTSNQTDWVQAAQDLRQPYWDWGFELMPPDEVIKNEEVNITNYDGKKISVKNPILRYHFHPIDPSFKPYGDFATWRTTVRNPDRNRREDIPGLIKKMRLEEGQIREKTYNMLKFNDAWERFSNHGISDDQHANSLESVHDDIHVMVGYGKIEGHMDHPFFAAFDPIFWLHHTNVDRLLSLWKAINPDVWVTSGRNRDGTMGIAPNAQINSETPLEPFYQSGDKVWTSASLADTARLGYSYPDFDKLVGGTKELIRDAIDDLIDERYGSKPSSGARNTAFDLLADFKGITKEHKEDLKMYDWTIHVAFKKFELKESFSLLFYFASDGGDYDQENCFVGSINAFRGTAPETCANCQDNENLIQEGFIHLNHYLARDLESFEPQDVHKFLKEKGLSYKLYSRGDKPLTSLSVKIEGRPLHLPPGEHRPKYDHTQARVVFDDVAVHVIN

[6] = Cytotoxicity against human COV318 cells incubated for 120 hrs by SRB assay; format: functional, cell-based; conditions: COV318, 120 h
[7] = Cytotoxicity against human COV362 cells incubated for 120 hrs by SRB assay; format: functional, cell-based; conditions: COV362, 120 h
OVCAR-3 = experiment: Cytotoxicity against human OVCAR-3 cells incubated for 72 hrs by SRB assay; format: functional, cell-based; conditions: OVCAR-3, 72 h
OVCAR-4 = experiment: Cytotoxicity against human OVCAR-4 cells incubated for 72 hrs by SRB assay; format: functional, cell-based; conditions: OVCAR-4, 72 h
[8] = Cytotoxicity against human OVSAHO cells incubated for 72 hrs by SRB assay; format: functional, cell-based
Dengue virus = experiment: Antiviral activity against DENV assessed as inhibition of viral replication relative to control; format: functional
SARS-CoV [9] = experiment: Antiviral activity against SARS-CoV; format: functional, organism-based; conditions: Severe acute respiratory syndrome-related coronavirus
Human coronavirus 229E [10] = experiment: Antiviral activity against hCoV-229E; format: functional, organism-based
B16-F10 = experiment: Inhibition of melanin production in mouse B16-F10 cells assessed as reduction in melanin content at 50 uM relative to control; format: functional

CCN(CC)CCOc1ccc(/C(=C(/Cl)c2ccccc2)c2ccccc2)cc1 [ENCLOMIPHENE CITRATE]
IC50 (Plasmodium): 0.22 µM

OCCOCCN1CCN(C(c2ccccc2)c2ccc(Cl)cc2)CC1 (stereo unspecified) [HYDROXYZINE]
EC50 [1]: 14.4 µM | CC50 [2]: > 50 µM

COc1ccc2c(c1)N(C[C@H](C)CN(C)C)c1ccccc1S2 [LEVOMEPROMAZINE]
EC50 [1]: 2.5 µM | CC50 [2]: 24.5 µM

CN(C)C(=O)C(CCN1CCC(O)(c2ccc(Cl)cc2)CC1)(c1ccccc1)c1ccccc1 [LOPERAMIDE]
EC50 [3]: 4.8 µM | EC50 (SARS-CoV [4]): 5.9 µM | EC50 (Human coronavirus 229E [5]): 4 µM

Cc1cccc(C)c1OCC(=O)N[C@@H](Cc1ccccc1)[C@@H](O)C[C@H](Cc1ccccc1)NC(=O)[C@H](C(C)C)N1CCCNC1=O [LOPINAVIR]
EC50 [3]: 8 µM

CCCCc1nc(Cl)c(CO)n1Cc1ccc(-c2ccccc2-c2nnn[nH]2)cc1 [LOSARTAN]
fold change (FC) (Mus musculus): 3.7

Sc1ncnc2nc[nH]c12 [MERCAPTOPURINE ANHYDROUS]
Ki (Tyrosinase): 16 µM

Cn1cc[nH]c1=S [METHIMAZOLE]
IC50 (Tyrosinase): 114 µM

Cc1cc(=O)[nH]c(=S)[nH]1 [METHYLTHIOURACIL]
IC50 (Tyrosinase): 142 µM

COc1ccc2[nH]c([S+]([O-])Cc3ncc(C)c(OC)c3C)nc2c1 (stereo unspecified) [OMEPRAZOLE]
IC50 (Plasmodium): < 1 µM

C[C@]12C=CC(=O)C=C1CC[C@@H]1[C@@H]2[C@@H](O)C[C@@]2(C)[C@H]1CC[C@]2(O)C(=O)CO [PREDNISOLONE]
IC50 [6]: 1.1 µM | IC50 [7]: 1.1 µM | IC50 (OVCAR-3): 1.1 µM | IC50 (OVCAR-4): 1.1 µM | IC50 [8]: 1.1 µM

CCCc1cc(=O)[nH]c(=S)[nH]1 [PROPYLTHIOURACIL]
IC50 (Tyrosinase): 170 µM

C=C[C@H]1CN2CC[C@H]1C[C@H]2[C@H](O)c1ccnc2ccc(OC)cc12 [QUININE]
inhibition (INH) (Dengue virus): 80%

O=C(c1ccc(OCCN2CCCCC2)cc1)c1c(-c2ccc(O)cc2)sc2cc(O)ccc12 [RALOXIFENE HYDROCHLORIDE]
IC50 (Plasmodium): < 0.5 µM

CN1CCN(CCOc2cc(OC3CCOCC3)c3c(Nc4c(Cl)ccc5c4OCO5)ncnc3c2)CC1 [SARACATINIB]
CC50 [2]: > 50 µM | EC50 (SARS-CoV [9]): 2.4 µM | EC50 (Human coronavirus 229E [10]): 5.1 µM

CN1CCN(c2nc(C3=C(c4c[nH]c5ccccc45)C(=O)NC3=O)c3ccccc3n2)CC1 [SOTRASTAURIN]
EC50 [1]: 9.7 µM | CC50 [2]: > 50 µM

Nc1nc2nc[nH]c2c(=S)[nH]1 [THIOGUANINE]
Ki (Tyrosinase): 52 µM | inhibition at 50 µM (B16-F10): 57%

OC[C@H]1O[C@@H](n2cnc3c(S)ncnc32)[C@H](O)[C@@H]1O [THIOINOSINE]
Ki (Tyrosinase): 8 µM

O=c1cc[nH]c(=S)[nH]1 [THIOURACIL]
IC50 (Tyrosinase): 128 µM
